Columns and labels:
[1] = molecular target: Epidermal growth factor receptor (Homo sapiens, UniProt P00533); test: DRUGMATRIX: Protein Tyrosine Kinase, EGF Receptor enzyme inhibition (substrate: Poly(Glu:Tyr)); assay type: cell-based, Insect cells; settings: insect cells, Not Active = under 50% inhibition at 10 µM
Cytochrome P450 2C19 = Cytochrome P450 2C19 (Homo sapiens, UniProt P33261); settings: bti-tn-5b1-4; further: in other assays of this panel Not Active means under 50% inhibition at 10 µM
Cytochrome P450 2C19, sequence (P33261 whole entry): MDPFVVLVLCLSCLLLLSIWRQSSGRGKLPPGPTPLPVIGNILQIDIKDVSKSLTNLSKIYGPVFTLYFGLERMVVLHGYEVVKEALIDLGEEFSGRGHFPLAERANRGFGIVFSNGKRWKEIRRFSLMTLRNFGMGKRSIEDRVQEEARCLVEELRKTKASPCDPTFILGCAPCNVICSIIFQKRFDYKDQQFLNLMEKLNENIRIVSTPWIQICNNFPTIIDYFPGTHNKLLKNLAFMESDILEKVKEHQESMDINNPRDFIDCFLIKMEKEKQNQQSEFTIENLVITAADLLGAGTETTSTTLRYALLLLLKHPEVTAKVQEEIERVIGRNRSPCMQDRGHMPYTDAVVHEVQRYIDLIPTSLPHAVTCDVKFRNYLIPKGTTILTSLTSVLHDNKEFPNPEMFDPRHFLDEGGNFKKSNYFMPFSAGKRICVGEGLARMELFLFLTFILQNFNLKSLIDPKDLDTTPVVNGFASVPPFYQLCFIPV

[2] = molecular target: T1, Alpha-2A adrenergic receptor (Homo sapiens, UniProt P08913); assay type: cell membranes, Sf9, Membrane; further: in other assays of this panel Not Active means under 50% inhibition at 10 µM
T1 sequence (P08913 whole entry): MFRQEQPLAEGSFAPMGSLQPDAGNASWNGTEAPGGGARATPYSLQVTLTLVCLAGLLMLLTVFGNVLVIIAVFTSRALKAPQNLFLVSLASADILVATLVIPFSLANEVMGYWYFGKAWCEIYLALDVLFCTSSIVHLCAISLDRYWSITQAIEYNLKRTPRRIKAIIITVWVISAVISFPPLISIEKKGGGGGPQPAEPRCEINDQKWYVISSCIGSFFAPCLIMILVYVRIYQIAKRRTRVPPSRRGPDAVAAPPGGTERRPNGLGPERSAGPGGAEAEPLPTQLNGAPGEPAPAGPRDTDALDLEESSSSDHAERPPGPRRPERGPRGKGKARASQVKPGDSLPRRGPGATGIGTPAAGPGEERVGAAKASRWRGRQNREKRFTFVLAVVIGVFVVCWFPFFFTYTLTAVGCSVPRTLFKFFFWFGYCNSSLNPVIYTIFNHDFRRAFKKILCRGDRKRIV

[3] = molecular target: C-C chemokine receptor type 2 (Homo sapiens, UniProt P41597); assay type: cell membranes, Membrane; settings: cho-k1; further: in other assays of this panel Not Active means under 50% inhibition at 10 µM
C-C chemokine receptor type 2, sequence (P41597 whole entry): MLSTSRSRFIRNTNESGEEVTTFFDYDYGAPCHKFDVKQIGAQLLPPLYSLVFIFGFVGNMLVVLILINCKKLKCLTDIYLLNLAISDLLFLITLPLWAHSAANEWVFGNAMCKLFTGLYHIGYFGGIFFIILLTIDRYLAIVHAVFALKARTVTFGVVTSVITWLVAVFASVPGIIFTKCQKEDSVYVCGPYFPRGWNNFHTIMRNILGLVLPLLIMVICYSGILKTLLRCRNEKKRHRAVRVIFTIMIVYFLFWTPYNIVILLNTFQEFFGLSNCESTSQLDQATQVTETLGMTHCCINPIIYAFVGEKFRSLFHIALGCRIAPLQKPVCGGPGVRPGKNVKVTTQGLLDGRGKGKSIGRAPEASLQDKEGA

[4] = molecular target: T2, Muscarinic acetylcholine receptor M5 (Homo sapiens, UniProt P08912); assay type: cell membranes, CHO-K1, Membrane; further: in other assays of this panel Not Active means under 50% inhibition at 10 µM
T2 sequence (P08912 whole entry): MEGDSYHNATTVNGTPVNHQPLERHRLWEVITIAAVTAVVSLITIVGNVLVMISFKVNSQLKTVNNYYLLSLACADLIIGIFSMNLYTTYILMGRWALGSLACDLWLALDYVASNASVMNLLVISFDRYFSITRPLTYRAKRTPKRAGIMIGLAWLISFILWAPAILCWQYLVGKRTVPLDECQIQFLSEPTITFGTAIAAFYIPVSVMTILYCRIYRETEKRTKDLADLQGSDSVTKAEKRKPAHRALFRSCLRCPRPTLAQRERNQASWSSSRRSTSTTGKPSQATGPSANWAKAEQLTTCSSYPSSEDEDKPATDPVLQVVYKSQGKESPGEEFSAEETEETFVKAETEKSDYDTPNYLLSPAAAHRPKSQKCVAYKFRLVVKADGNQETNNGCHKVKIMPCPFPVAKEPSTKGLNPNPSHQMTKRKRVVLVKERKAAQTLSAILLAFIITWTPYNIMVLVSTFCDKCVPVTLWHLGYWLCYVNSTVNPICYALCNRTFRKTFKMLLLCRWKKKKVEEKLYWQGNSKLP

[5] = molecular target: Beta-1 adrenergic receptor (Homo sapiens, UniProt P08588); test: DRUGMATRIX: Adrenergic beta1 radioligand binding (ligand: [125I] Cyanopindolol); assay type: cell membranes, CHO-K1, Membrane; settings: cho-k1; Not Active = under 50% inhibition at 10 µM
Beta-1 adrenergic receptor, sequence (P08588 whole entry): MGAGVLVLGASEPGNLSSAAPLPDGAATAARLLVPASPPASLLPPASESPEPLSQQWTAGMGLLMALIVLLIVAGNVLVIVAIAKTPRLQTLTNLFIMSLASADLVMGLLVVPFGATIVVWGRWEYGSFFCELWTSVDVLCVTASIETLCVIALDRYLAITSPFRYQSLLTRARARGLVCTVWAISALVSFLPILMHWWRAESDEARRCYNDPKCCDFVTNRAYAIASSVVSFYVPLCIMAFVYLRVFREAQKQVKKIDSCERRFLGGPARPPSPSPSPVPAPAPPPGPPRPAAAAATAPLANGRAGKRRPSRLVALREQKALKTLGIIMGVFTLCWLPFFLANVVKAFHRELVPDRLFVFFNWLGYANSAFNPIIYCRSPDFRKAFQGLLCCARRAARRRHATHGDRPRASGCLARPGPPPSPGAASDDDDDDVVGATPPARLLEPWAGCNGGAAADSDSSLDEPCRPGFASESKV

CN1CCCC(CN2c3ccccc3Sc3ccccc32)C1 (stereo not given) [MEPAZINE]
1460 nM: IC50 ([2]; read-out: IC50)
Not Active: IC50 [1] | IC50 (Cytochrome P450 2C19) | Ki (Cytochrome P450 2C19) | IC50 [3] | IC50 [5]
40 nM: IC50 ([4]; read-out: IC50)
546 nM: Ki ([2]; read-out: Ki)
28 nM: Ki ([4]; read-out: Ki)

Cc1cccc(C)c1NC(=O)C1CCCCN1C (stereo not given) [MEPIVACAINE]
Not Active: IC50 [1] | IC50 (Cytochrome P450 2C19) | Ki (Cytochrome P450 2C19) | IC50 ([2]; sf9) | IC50 [3] | IC50 ([4]; cho-k1) | IC50 [5]

CN(C)C(=N)NC(=N)N [METFORMIN]
Not Active: IC50 [1] | IC50 (Cytochrome P450 2C19) | Ki (Cytochrome P450 2C19) | IC50 ([2]; sf9) | IC50 [3] | IC50 ([4]; cho-k1) | IC50 [5]

CC(C)(C)NCC(O)COc1cccc2c1CC(O)C(O)C2 (stereo not given) [NADOLOL]
Not Active: IC50 [1] | IC50 (Cytochrome P450 2C19) | Ki (Cytochrome P450 2C19) | IC50 ([2]; sf9) | IC50 [3] | IC50 ([4]; cho-k1) | IC50 [5]

C[C@]12CC[C@H]3[C@@H](CCC4=CC(=O)CC[C@@H]43)[C@@H]1CC[C@@H]2O [NANDROLONE]
Not Active: IC50 [1] | IC50 (Cytochrome P450 2C19) | Ki (Cytochrome P450 2C19) | IC50 ([2]; sf9) | IC50 [3] | IC50 ([4]; cho-k1) | IC50 [5]

CN(C)C(=O)Oc1cccc([N+](C)(C)C)c1.[Br-] [NEOSTIGMINE BROMIDE]
Not Active: IC50 [1] | IC50 (Cytochrome P450 2C19) | Ki (Cytochrome P450 2C19) | IC50 ([2]; sf9) | IC50 [3] | IC50 ([4]; cho-k1) | IC50 [5]

NC(=O)c1cccnc1 [NIACINAMIDE]
Not Active: IC50 [1] | IC50 (Cytochrome P450 2C19) | Ki (Cytochrome P450 2C19) | IC50 ([2]; sf9) | IC50 [3] | IC50 ([4]; cho-k1) | IC50 [5]

CS(=O)(=O)Nc1ccc([N+](=O)[O-])cc1Oc1ccccc1 [NIMESULIDE]
Not Active: IC50 [1] | IC50 (Cytochrome P450 2C19) | Ki (Cytochrome P450 2C19) | IC50 ([2]; sf9) | IC50 [3] | IC50 ([4]; cho-k1) | IC50 [5]

CN1C(=O)CN=C(c2ccccc2)c2cc([N+](=O)[O-])ccc21 [NIMETAZEPAM]
Not Active: IC50 [1] | IC50 (Cytochrome P450 2C19) | Ki (Cytochrome P450 2C19) | IC50 ([2]; sf9) | IC50 [3] | IC50 ([4]; cho-k1) | IC50 [5]

C[C@@H]1O[C@@H](O[C@H]2C[C@@H](O)[C@]3(CO)[C@H]4[C@H](O)C[C@]5(C)[C@@H](C6=CC(=O)OC6)CC[C@]5(O)[C@@H]4CC[C@]3(O)C2)[C@H](O)[C@H](O)[C@H]1O [OUABAIN]
Not Active: IC50 [1] | IC50 (Cytochrome P450 2C19) | Ki (Cytochrome P450 2C19) | IC50 ([2]; sf9) | IC50 [3] | IC50 ([4]; cho-k1) | IC50 [5]

NC(=O)N1c2ccccc2CC(=O)c2ccccc21 [OXCARBAZEPINE]
Not Active: IC50 [1] | IC50 (Cytochrome P450 2C19) | Ki (Cytochrome P450 2C19) | IC50 ([2]; sf9) | IC50 [3] | IC50 ([4]; cho-k1) | IC50 [5]

COc1ccnc(C[S+]([O-])c2nc3ccc(OC(F)F)cc3[nH]2)c1OC (stereo not given) [PANTOPRAZOLE]
Not Active: IC50 [1] | IC50 (Cytochrome P450 2C19) | Ki (Cytochrome P450 2C19) | IC50 ([2]; sf9) | IC50 [3] | IC50 ([4]; cho-k1) | IC50 [5]

N=C(N)c1ccc(OCCCCCOc2ccc(C(=N)N)cc2)cc1 [PENTAMIDINE]
516 nM: Ki ([2]; read-out: Ki)
2880 nM: IC50 ([4]; read-out: IC50)
1380 nM: IC50 ([2]; read-out: IC50)
Not Active: IC50 [1] | IC50 (Cytochrome P450 2C19) | Ki (Cytochrome P450 2C19) | IC50 [3] | IC50 [5]
2070 nM: Ki ([4]; read-out: Ki)

CCc1ccc(CCOc2ccc(CC3SC(=O)NC3=O)cc2)nc1 (stereo not given) [PIOGLITAZONE]
Not Active: IC50 [1] | IC50 (Cytochrome P450 2C19) | Ki (Cytochrome P450 2C19) | IC50 ([2]; sf9) | IC50 [3] | IC50 ([4]; cho-k1) | IC50 [5]

CCCNC(C)C(=O)Nc1ccccc1C (stereo not given) [PRILOCAINE]
Not Active: IC50 [1] | IC50 (Cytochrome P450 2C19) | Ki (Cytochrome P450 2C19) | IC50 ([2]; sf9) | IC50 [3] | IC50 ([4]; cho-k1) | IC50 [5]

CCN(CC)CCCC(C)Nc1c2ccc(Cl)cc2nc2ccc(OC)cc12 (stereo not given) [QUINACRINE]
3740 nM: IC50 ([4]; read-out: IC50)
Not Active: IC50 [1] | IC50 (Cytochrome P450 2C19) | Ki (Cytochrome P450 2C19) | IC50 [3] | IC50 [5]
2680 nM: Ki ([4]; read-out: Ki)
855 nM: Ki ([2]; read-out: Ki)
2280 nM: IC50 ([2]; read-out: IC50)

CC[C@]1(O)C[C@@H]2CN(CCc3c([nH]c4ccccc34)[C@@](C(=O)OC)(c3cc4c(cc3OC)N(C)[C@H]3[C@@](O)(C(N)=O)[C@H](O)[C@]5(CC)C=CCN6CC[C@]43[C@@H]65)C2)C1 [VINDESINE]
Not Active: IC50 [1] | IC50 (Cytochrome P450 2C19) | Ki (Cytochrome P450 2C19) | IC50 ([2]; sf9) | IC50 [3] | IC50 ([4]; cho-k1) | IC50 [5]

CCN(C(C)=O)c1cccc(-c2ccnc3c(C#N)cnn23)c1 [ZALEPLON]
Not Active: IC50 [1] | IC50 (Cytochrome P450 2C19) | Ki (Cytochrome P450 2C19) | IC50 ([2]; sf9) | IC50 [3] | IC50 ([4]; cho-k1) | IC50 [5]

COBALTOUS CHLORIDE
Not Active: IC50 [1] | Ki [1] | IC50 (Cytochrome P450 2C19) | Ki (Cytochrome P450 2C19) | IC50 ([2]; sf9) | Ki ([2]; sf9) | IC50 [3] | Ki [3] | IC50 ([4]; cho-k1) | Ki ([4]; cho-k1) | IC50 [5] | Ki [5]

COLISTIN
1500 nM: IC50 ([1]; read-out: IC50)
Not Active: IC50 (Cytochrome P450 2C19) | Ki (Cytochrome P450 2C19) | IC50 ([2]; sf9) | Ki ([2]; sf9) | IC50 [3] | Ki [3] | IC50 ([4]; cho-k1) | Ki ([4]; cho-k1) | IC50 [5] | Ki [5]

From ChEMBL document CHEMBL1909046, “DrugMatrix in vitro pharmacology data”
